According to patent publication US20140357512A1, “HISTONE DEACETYLASE (HDAC) BIOMARKERS IN MULTIPLE MYELOMA” (priority 2013, published 2014):

Tested on: human myeloma cell line MM.1S
Assay: Biological pathway analysis of SILAC biomarker peptides against pathway database (broadinstitute gsea)
Protocol: Once biomarker peptides are identified for a specific drug by the SILAC method, the biomarker peptides may be compared to peptides/proteins in a biological pathway database in order to identify major biological pathways or functions implicated by the drug's action. A preferred pathway analysis website is at www dot broadinstitute dot org/gsea/index dot jsp.
This example describes the biological pathway analysis that was performed on each of Compound A, Compound B, and Tubastatin A.
Once biomarker peptides were identified for a specific drug (either Compound A, Compound B, or Tubastatin A) by the SILAC method in Example 1, the biomarker peptides were compared to peptides/proteins in the biological pathway database at www dot broadinstitute dot org/gsea/index dot jsp in order to identify major biological pathways or functions implicated by the drug's action.

CN1CCc2c(c3ccccc3n2Cc2ccc(C(=O)NO)cc2)C1 [Tubastatin A, reference compound]
Observed: number of genes in pathway REACTOME_PACKAGING_OF_TELOMERE_ENDS (Pathway_size 48): 26 | Ratio observed/pathway size, REACTOME_PACKAGING_OF_TELOMERE_ENDS (Pathway_size 48): 0.5417 | Observed: number of genes in pathway REACTOME_RNA_POL_I_PROMOTER_OPENING (Pathway_size 61): 40 | Ratio observed/pathway size, REACTOME_RNA_POL_I_PROMOTER_OPENING (Pathway_size 61): 0.6557 | Observed: number of genes in pathway REACTOME_DEPOSITION_OF_NEW_CENPA_CONTAINING_NUCLEOSOMES_AT_THE_CENTROMERE (Pathway_size 64): 27 | Ratio observed/pathway size, REACTOME_DEPOSITION_OF_NEW_CENPA_CONTAINING_NUCLEOSOMES_AT_THE_CENTROMERE (Pathway_size 64): 0.4219 | Observed: number of genes in pathway GCM_TPT1 (Pathway_size 70): 28 | Ratio observed/pathway size, GCM_TPT1 (Pathway_size 70): 0.4 | Observed: number of genes in pathway REACTOME_MEIOTIC_SYNAPSIS (Pathway_size 71): 27 | Ratio observed/pathway size, REACTOME_MEIOTIC_SYNAPSIS (Pathway_size 71): 0.3803 | Observed: number of genes in pathway REACTOME_TELOMERE_MAINTENANCE (Pathway_size 75): 26 | Ratio observed/pathway size, REACTOME_TELOMERE_MAINTENANCE (Pathway_size 75): 0.3467 | Observed: number of genes in pathway STRUCTURAL_CONSTITUENT_OF_RIBOSOME (Pathway_size 80): 28 | Ratio observed/pathway size, STRUCTURAL_CONSTITUENT_OF_RIBOSOME (Pathway_size 80): 0.35 | Observed: number of genes in pathway MIPS_RIBOSOME_CYTOPLASMIC (Pathway_size 81): 32 | Observed: number of genes in pathway REACTOME_AMYLOIDS (Pathway_size 81): 40 | Ratio observed/pathway size, MIPS_RIBOSOME_CYTOPLASMIC (Pathway_size 81): 0.3951 | Ratio observed/pathway size, REACTOME_AMYLOIDS (Pathway_size 81): 0.4938 | Observed: number of genes in pathway REACTOME_MEIOTIC_RECOMBINATION (Pathway_size 84): 41 | Ratio observed/pathway size, REACTOME_MEIOTIC_RECOMBINATION (Pathway_size 84): 0.4881 | Observed: number of genes in pathway REACTOME_RNA_POL_I_TRANSCRIPTION (Pathway_size 86): 40 | Ratio observed/pathway size, REACTOME_RNA_POL_I_TRANSCRIPTION (Pathway_size 86): 0.4651 | Observed: number of genes in pathway KEGG_RIBOSOME (Pathway_size 88): 33 | Ratio observed/pathway size, KEGG_RIBOSOME (Pathway_size 88): 0.375 | Observed: number of genes in pathway MORF_TPT1 (Pathway_size 102): 32 | Ratio observed/pathway size, MORF_TPT1 (Pathway_size 102): 0.3137 | Observed: number of genes in pathway MIPS_NOP56P_ASSOCIATED_PRE_RRNA_COMPLEX (Pathway_size 104): 33 | Ratio observed/pathway size, MIPS_NOP56P_ASSOCIATED_PRE_RRNA_COMPLEX (Pathway_size 104): 0.3173 | Observed: number of genes in pathway REACTOME_MEIOSIS (Pathway_size 112): 42 | Ratio observed/pathway size, REACTOME_MEIOSIS (Pathway_size 112): 0.375 | Observed: number of genes in pathway GCM_NPM1 (Pathway_size 116): 36 | Ratio observed/pathway size, GCM_NPM1 (Pathway_size 116): 0.3103 | Observed: number of genes in pathway GNF2_DAP3 (Pathway_size 119): 30 | Observed: number of genes in pathway REACTOME_RNA_POL_I_RNA_POL_III_AND_MITOCHONDRIAL_TRANSCRIPTION (Pathway_size 119): 40 | Ratio observed/pathway size, GNF2_DAP3 (Pathway_size 119): 0.2521 | Ratio observed/pathway size, REACTOME_RNA_POL_I_RNA_POL_III_AND_MITOCHONDRIAL_TRANSCRIPTION (Pathway_size 119): 0.3361 | Observed: number of genes in pathway GNF2_EIF3S6 (Pathway_size 121): 33 | Ratio observed/pathway size, GNF2_EIF3S6 (Pathway_size 121): 0.2727 | Observed: number of genes in pathway GCM_ACTG1 (Pathway_size 124): 34 | Ratio observed/pathway size, GCM_ACTG1 (Pathway_size 124): 0.2742 | Observed: number of genes in pathway MORF_ACTG1 (Pathway_size 138): 39 | Ratio observed/pathway size, MORF_ACTG1 (Pathway_size 138): 0.2826 | Observed: number of genes in pathway KEGG_SYSTEMIC_LUPUS_ERYTHEMATOSUS (Pathway_size 139): 47 | Ratio observed/pathway size, KEGG_SYSTEMIC_LUPUS_ERYTHEMATOSUS (Pathway_size 139): 0.3381 | Observed: number of genes in pathway REACTOME_PEPTIDE_CHAIN_ELONGATION (Pathway_size 145): 32 | Ratio observed/pathway size, REACTOME_PEPTIDE_CHAIN_ELONGATION (Pathway_size 145): 0.2207 | Observed: number of genes in pathway MORF_NME2 (Pathway_size 154): 39 | Ratio observed/pathway size, MORF_NME2 (Pathway_size 154): 0.2532 | Observed: number of genes in pathway REACTOME_INFLUENZA_VIRAL_RNA_TRANSCRIPTION_AND_REPLICATION (Pathway_size 161): 33 | Ratio observed/pathway size, REACTOME_INFLUENZA_VIRAL_RNA_TRANSCRIPTION_AND_REPLICATION (Pathway_size 161): 0.205 | Observed: number of genes in pathway MORF_NPM1 (Pathway_size 162): 43 | Ratio observed/pathway size, MORF_NPM1 (Pathway_size 162): 0.2654 | Observed: number of genes in pathway REACTOME_3_UTR_MEDIATED_TRANSLATIONAL_REGULATION (Pathway_size 166): 32 | Ratio observed/pathway size, REACTOME_3_UTR_MEDIATED_TRANSLATIONAL_REGULATION (Pathway_size 166): 0.1928 | Observed: number of genes in pathway REACTOME_NONSENSE_MEDIATED_DECAY_ENHANCED_BY_THE_EXON_JUNCTION_COMPLEX (Pathway_size 167): 32 | Ratio observed/pathway size, REACTOME_NONSENSE_MEDIATED_DECAY_ENHANCED_BY_THE_EXON_JUNCTION_COMPLEX (Pathway_size 167): 0.1916 | Observed: number of genes in pathway REACTOME_SRP_DEPENDENT_COTRANSLATIONAL_PROTEIN_TARGETING_TO_MEMBRANE (Pathway_size 170): 39 | Ratio observed/pathway size, REACTOME_SRP_DEPENDENT_COTRANSLATIONAL_PROTEIN_TARGETING_TO_MEMBRANE (Pathway_size 170): 0.2294 | Observed: number of genes in pathway REACTOME_INFLUENZA_LIFE_CYCLE (Pathway_size 195): 37 | Ratio observed/pathway size, REACTOME_INFLUENZA_LIFE_CYCLE (Pathway_size 195): 0.1897 | Observed: number of genes in pathway MORF_ANP32B (Pathway_size 197): 38 | Ratio observed/pathway size, MORF_ANP32B (Pathway_size 197): 0.1929 | Observed: number of genes in pathway REACTOME_TRANSCRIPTION (Pathway_size 207): 45 | Ratio observed/pathway size, REACTOME_TRANSCRIPTION (Pathway_size 207): 0.2174 | Observed: number of genes in pathway REACTOME_TRANSLATION (Pathway_size 211): 39 | Ratio observed/pathway size, REACTOME_TRANSLATION (Pathway_size 211): 0.1848 | Observed: number of genes in pathway MORF_UBE2I (Pathway_size 238): 43 | Ratio observed/pathway size, MORF_UBE2I (Pathway_size 238): 0.1807 | Observed: number of genes in pathway MODULE_32 (Pathway_size 241): 36 | Ratio observed/pathway size, MODULE_32 (Pathway_size 241): 0.1494 | Observed: number of genes in pathway MORF_HDAC1 (Pathway_size 254): 37 | Ratio observed/pathway size, MORF_HDAC1 (Pathway_size 254): 0.1457 | Observed: number of genes in pathway MORF_DEK (Pathway_size 262): 39 | Ratio observed/pathway size, MORF_DEK (Pathway_size 262): 0.1489 | Observed: number of genes in pathway MORF_RAN (Pathway_size 268): 46 | Ratio observed/pathway size, MORF_RAN (Pathway_size 268): 0.1716 | Observed: number of genes in pathway MODULE_151 (Pathway_size 318): 49 | Ratio observed/pathway size, MODULE_151 (Pathway_size 318): 0.1541 | Observed: number of genes in pathway MODULE_83 (Pathway_size 320): 50 | Ratio observed/pathway size, MODULE_83 (Pathway_size 320): 0.1562 | Observed: number of genes in pathway MODULE_114 (Pathway_size 338): 49 | Ratio observed/pathway size, MODULE_114 (Pathway_size 338): 0.145 | Observed: number of genes in pathway HSIAO_HOUSEKEEPING_GENES (Pathway_size 389): 68 | Ratio observed/pathway size, HSIAO_HOUSEKEEPING_GENES (Pathway_size 389): 0.1748 | Observed: number of genes in pathway MOOTHA_HUMAN_MITODB_6_2002 (Pathway_size 429): 46 | Ratio observed/pathway size, MOOTHA_HUMAN_MITODB_6_2002 (Pathway_size 429): 0.1072 | Observed: number of genes in pathway REACTOME_METABOLISM_OF_PROTEINS (Pathway_size 496): 56 | Ratio observed/pathway size, REACTOME_METABOLISM_OF_PROTEINS (Pathway_size 496): 0.1129 | Observed: number of genes in pathway MARTENS_TRETINOIN_RESPONSE_DN (Pathway_size 841): 63 | Ratio observed/pathway size, MARTENS_TRETINOIN_RESPONSE_DN (Pathway_size 841): 0.07491 | Observed: number of genes in pathway GRADE_COLON_CANCER_UP (Pathway_size 870): 62 | Ratio observed/pathway size, GRADE_COLON_CANCER_UP (Pathway_size 870): 0.07126 | Observed: number of genes in pathway DANG_BOUND_BY_MYC (Pathway_size 1102): 68 | Ratio observed/pathway size, DANG_BOUND_BY_MYC (Pathway_size 1102): 0.06171 | Observed: number of genes in pathway CYTOPLASMIC_PART (Pathway_size 1383): 67 | Ratio observed/pathway size, CYTOPLASMIC_PART (Pathway_size 1383): 0.04845 | Observed: number of genes in pathway PUJANA_BRCA1_PCC_NETWORK (Pathway_size 1651): 84 | Ratio observed/pathway size, PUJANA_BRCA1_PCC_NETWORK (Pathway_size 1651): 0.05088 | Observed: number of genes in pathway CYTOPLASM (Pathway_size 2130): 83 | Ratio observed/pathway size, CYTOPLASM (Pathway_size 2130): 0.03897
